Changes are numbered by the printed parent chain. Read-outs that look alike come from different tables or passages of the source. Residues, ends and D or L forms follow the SMILES beside them. No end group written: not given here.
Tests used:
Type in all cases: binding
BAZ2A PHD = target: T1, BAZ2A PHD (Homo sapiens, UniProt Q9UIF9); assay: ITC, H3 peptides titrated into BAZ2A PHD (WT); conditions: for effect on binding, in words: compared with H3 10-mer WT or the peptide named in the words
T1 construct: The small PHDs (∼6.5 kDa) of both BAZ2A and BAZ2B; made in house
T1 sequence (Q9UIF9 1676-1726 limits assumed): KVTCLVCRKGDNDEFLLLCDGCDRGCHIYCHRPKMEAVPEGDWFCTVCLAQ
Protocol: (§1) All calorimetric experiments were performed on a MicroCal iTC200 microcalorimeter (GE Healthcare) at 25°C in a buffer containing 20 mM HEPES at a pH of 8, 150 mM NaCl and 0.5 mM Tris(2-carboxyethyl) phosphine. All ITC experiments were carried out titrating peptide solutions (1.5–3 mM) into protein solutions (80–120 µM) loaded in the calorimeter cell, performing one first injection of 0.4 µl followed by 19 injections of 2 µl. The data were analyzed using the MicroCal™ software package subtracting the data from an independent titration of peptide into buffer to account for heat of dilution, and then fitted using a single-binding site model. Protein concentration was determined by measuring absorbance at 280 nm using the following extinction coefficients: BAZ2A PHD ε280 = 6990 M^−1 cm^−1 and BAZ2B PHD ε280 = 8480 M^−1 cm^−1. Lyophilized peptides were weighted and dissolved in an appropriate volume of buffer to obtain the desired concentration.

BAZ2B PHD = target: T2, BAZ2B PHD (Homo sapiens, UniProt Q9UIF8); assay: ITC, H3 peptides titrated into BAZ2B PHD (WT); conditions: for effect on binding, in words: compared with H3 10-mer WT
T2 construct: The small PHDs (∼6.5 kDa) of both BAZ2A and BAZ2B; made in house
T2 sequence (Q9UIF8 1931-1981 limits assumed): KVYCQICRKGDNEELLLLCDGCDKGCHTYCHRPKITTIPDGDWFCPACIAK
Protocol: as §1

BAZ2A PHD E1689Q = target: T3, BAZ2A PHD E1689Q (Homo sapiens, UniProt Q9UIF9, E1689Q); assay: ITC, H3 10-mer into BAZ2A PHD E1689Q mutant; conditions: ITC 25°C, triplicate, mean ± s.e.m.; SEM
T3 construct: Mutations were introduced into BAZ2A/B PHD fingers by polymerase chain reaction (PCR) amplification of the original construct; made in house
T3 sequence (Q9UIF9 1676-1726 E1689Q limits assumed): T1 sequence (Q9UIF9 1676-1726 limits assumed) with E14Q
Protocol: (§2) Mutations were introduced into BAZ2A/B PHD fingers by polymerase chain reaction (PCR) amplification of the original construct using Phusion DNA Polymerase (Thermo Fisher Scientific) and a specific pair of primers for each mutation (Supplementary Table S4). The PCR amplification product was incubated with Dpn I (New England BioLabs) for 1 h at 37°C to digest the parental DNA strands and then used to transform Escherichia coli DH5α cells. Transformed cells were grown on lysogeny broth (LB) agar plates supplemented with 100 µg/ml ampicillin for 16 h at 37°C. Single colonies were picked to inoculate 5 ml of LB plus 100 µg/ml ampicillin and grown for 16 h at 37°C. […]
(§3) All calorimetric experiments were performed on a MicroCal iTC200 microcalorimeter (GE Healthcare) at 25°C in a buffer containing 20 mM HEPES at a pH of 8, 150 mM NaCl and 0.5 mM Tris(2-carboxyethyl) phosphine. […] The data were analyzed using the MicroCal™ software package subtracting the data from an independent titration of peptide into buffer to account for heat of dilution, and then fitted using a single-binding site model. Protein concentration was determined by measuring absorbance at 280 nm using the following extinction coefficients: BAZ2A PHD ε280 = 6990 M^−1 cm^−1 and BAZ2B PHD ε280 = 8480 M^−1 cm^−1. […]

BAZ2A PHD E1689K = target: T4, BAZ2A PHD E1689K (Homo sapiens, UniProt Q9UIF9, E1689K); assay: ITC, H3 10-mer into BAZ2A PHD E1689K mutant; conditions: ITC 25°C, duplicate, mean ± s.e.m.; SEM
T4 construct: Mutations were introduced into BAZ2A/B PHD fingers by polymerase chain reaction (PCR) amplification of the original construct; made in house
T4 sequence (Q9UIF9 1676-1726 E1689K limits assumed): T1 sequence (Q9UIF9 1676-1726 limits assumed) with E14K
Protocol: as §2, §3

BAZ2A PHD D1688N/E1689Q = target: T5, BAZ2A PHD D1688N/E1689Q (Homo sapiens, UniProt Q9UIF9, D1688N/E1689Q); assay: ITC, H3 10-mer into BAZ2A PHD D1688N/E1689Q double mutant; conditions: ITC 25°C, triplicate, mean ± s.e.m.; N fixed to 1 in fit; SEM
T5 construct: Mutations were introduced into BAZ2A/B PHD fingers by polymerase chain reaction (PCR) amplification of the original construct; made in house
T5 sequence (Q9UIF9 1676-1726 D1688N/E1689Q limits assumed): T1 sequence (Q9UIF9 1676-1726 limits assumed) with D13N, E14Q
Protocol: as §2, §3

BAZ2B PHD E1944Q = target: T6, BAZ2B PHD E1944Q (Homo sapiens, UniProt Q9UIF8, E1944Q); assay: ITC, H3 10-mer into BAZ2B PHD E1944Q mutant; conditions: ITC 25°C, triplicate, mean ± s.e.m.; N fixed to 1 in fit; SEM
T6 construct: Mutations were introduced into BAZ2A/B PHD fingers by polymerase chain reaction (PCR) amplification of the original construct; made in house
T6 sequence (Q9UIF8 1931-1981 E1944Q limits assumed): T2 sequence (Q9UIF8 1931-1981 limits assumed) with E14Q
Protocol: as §2, §3

BAZ2B PHD E1944K = target: T7, BAZ2B PHD E1944K (Homo sapiens, UniProt Q9UIF8, E1944K); assay: ITC, H3 10-mer into BAZ2B PHD E1944K mutant; conditions: ITC 25°C
T7 construct: Mutations were introduced into BAZ2A/B PHD fingers by polymerase chain reaction (PCR) amplification of the original construct; made in house
T7 sequence (Q9UIF8 1931-1981 E1944K limits assumed): T2 sequence (Q9UIF8 1931-1981 limits assumed) with E14K
Protocol: as §2, §3

[1] = ITC, 25°C, 20 mM HEPES pH 8, 150 mM NaCl, 0.5 mM TCEP, peptide 1.5–3 mM into protein 80–120 µM, single-site fit, error from fit (Table 2), read-out: KD
[2] = KD, ITC, 25°C, 20 mM HEPES pH 8, 150 mM NaCl, 0.5 mM TCEP, peptide 1.5–3 mM into protein 80–120 µM, single-site fit, error from fit (Table 2)

Compound	Kd (BAZ2A PHD; [1])	Kd (BAZ2B PHD; [1])	also measured
C[C@H](N)C(=O)N[C@@H](CCCNC(=N)N)C(=O)N[C@H](C(=O)N[C@@H](C)C(=O)N[C@@H](CCC(N)=O)C(=O)N[C@H](C(=O)N[C@@H](C)C(=O)N[C@@H](CCCNC(=N)N)C(=O)N[C@@H](CCCCN)C(=O)N[C@@H](CO)C(N)=O)[C@@H](C)O)[C@@H](C)O [ARTAQTARKS]	42 ± 2 µM	8.5 ± 0.2 µM	–
C[C@H](N)C(=O)N[C@@H](CCCNC(=N)N)C(=O)N[C@H](C(=O)N[C@@H](C)C(N)=O)[C@@H](C)O [ARTA] (H-ARTA-NH2)	56 ± 2 µM	–	–
C[C@H](N)C(=O)N[C@@H](CCCNC(=N)N)C(=O)N[C@H](C(=O)N[C@@H](CCCCN)C(=O)N[C@@H](C)C(=O)N[C@H](C(=O)N[C@@H](C)C(=O)N[C@@H](CCCNC(=N)N)C(=O)N[C@@H](CCCCN)C(=O)N[C@@H](CO)C(N)=O)[C@@H](C)O)[C@@H](C)O [ARTKATARKS]	9.3 ± 0.2 µM	7 ± 0.2 µM	–
C[C@H](N)C(=O)N[C@@H](CCCNC(=N)N)C(=O)N[C@H](C(=O)N[C@@H](CCCCN)C(=O)N[C@@H](CCC(N)=O)C(=O)N[C@@H](C)C(=O)N[C@@H](C)C(=O)N[C@@H](CCCNC(=N)N)C(=O)N[C@@H](CCCCN)C(=O)N[C@@H](CO)C(N)=O)[C@@H](C)O [ARTKQAARKS]	55 ± 2 µM	44.6 ± 0.8 µM	–
C[C@H](N)C(=O)N[C@@H](CCCNC(=N)N)C(=O)N[C@H](C(=O)N[C@@H](CCCCN)C(=O)N[C@@H](CCC(N)=O)C(=O)N[C@H](C(=O)N[C@@H](C)C(=O)N[C@@H](CCCNC(=N)N)C(=O)N[C@@H](CCCCN)C(=O)N[C@@H](CO)C(N)=O)[C@@H](C)O)[C@@H](C)O [ARTKQTARKS]	–	–	Kd (BAZ2A PHD; KD, BAZ2A PHD wt, ITC 25°C, triplicate, mean ± s.e.m. (Table 3), SEM): 48 ± 2 µM; Kd (BAZ2A PHD; [2]): 51 ± 2 µM; Kd (BAZ2B PHD; KD, BAZ2B PHD wt, ITC 25°C, triplicate, mean ± s.e.m. (Table 3), SEM): 47 ± 2 µM; Kd (BAZ2B PHD; [2]): 40 ± 0.5 µM; Kd (BAZ2A PHD E1689Q): 83 ± 7 µM; Kd (BAZ2A PHD E1689K): 116 ± 6 µM; Kd (BAZ2A PHD D1688N/E1689Q): 810 ± 50 µM; Kd (BAZ2B PHD E1944Q): 660 ± 60 µM; KD (BAZ2B PHD E1944K): completely abrogated binding; Kd (BAZ2B PHD E1944K): > 1 mM
C[C@H](N)C(=O)N[C@@H](CCCNC(=N)N)C(=O)N[C@H](C(=O)N[C@@H](CCCCN)C(=O)N[C@@H](CCC(N)=O)C(N)=O)[C@@H](C)O [ARTKQ]	210 ± 30 µM	190 ± 25 µM	–
C[C@H](N)C(=O)N[C@@H](CCCNC(=N)N)C(=O)N[C@H](C(=O)N[C@@H](CCCCN)C(N)=O)[C@@H](C)O [ARTK] (H-ARTK-NH2)	100 ± 4 µM	–	–
AATKQTARKS-NH2 [AATKQTARKS]	> 1000 µM	> 1000 µM	effect on binding, in words (BAZ2A PHD; ITC): abolished binding; effect on binding, in words (BAZ2B PHD; ITC): abolished binding
ARAKQTARKS-NH2 [ARAKQTARKS]	–	> 5000 µM	KD (BAZ2A PHD; ITC, 25°C, 20 mM HEPES pH 8, 150 mM NaCl, 0.5 mM TCEP, peptide 1.5–3 mM into protein 80–120 µM, single-site fit, error from fit (Table 2)): No binding; effect on binding, in words (BAZ2A PHD; ITC): abolished binding; effect on binding, in words (BAZ2B PHD; ITC): abolished binding
ARTAATARKS-NH2 [ARTAATARKS]	12.1 ± 0.3 µM	2.6 ± 0.1 µM	–
ARTGGTARKS-NH2 [ARTGGTARKS]	143 ± 7 µM	166 ± 8 µM	–
